Measured values as given in patent publication US9796733B2, “Imidazo-pyrazine derivatives useful as soluble guanylate cyclase activators” (Merck Sharp & Dohme Corp., priority 2014, dated 2017).

Molecular target: T1, sGC α1/β1 heterodimer (Homo sapiens, UniProt Q02108+Q02153)
T1 construct: expressed in transfected cells; host or cells: CHO-K1 (clone #7, CHO-K1/sGC)
T1 sequence (Q02108 1-690): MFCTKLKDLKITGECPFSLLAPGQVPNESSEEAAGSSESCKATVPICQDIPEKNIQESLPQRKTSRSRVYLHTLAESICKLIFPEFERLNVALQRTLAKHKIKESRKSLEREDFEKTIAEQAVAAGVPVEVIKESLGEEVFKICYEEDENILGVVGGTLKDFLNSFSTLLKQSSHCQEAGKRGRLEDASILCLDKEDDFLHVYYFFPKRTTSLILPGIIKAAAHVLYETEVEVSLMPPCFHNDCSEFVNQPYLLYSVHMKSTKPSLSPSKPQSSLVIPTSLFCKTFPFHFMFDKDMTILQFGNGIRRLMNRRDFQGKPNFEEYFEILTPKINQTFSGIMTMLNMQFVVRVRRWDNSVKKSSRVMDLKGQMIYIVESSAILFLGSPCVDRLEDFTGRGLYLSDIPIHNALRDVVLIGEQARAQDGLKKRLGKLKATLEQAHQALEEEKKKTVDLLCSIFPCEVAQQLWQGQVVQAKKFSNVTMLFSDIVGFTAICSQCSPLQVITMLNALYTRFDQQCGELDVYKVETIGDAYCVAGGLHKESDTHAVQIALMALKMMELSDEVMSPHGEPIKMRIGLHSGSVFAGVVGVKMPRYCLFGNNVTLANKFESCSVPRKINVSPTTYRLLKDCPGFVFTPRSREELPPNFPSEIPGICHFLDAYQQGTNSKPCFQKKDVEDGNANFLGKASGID
T1 sequence (Q02153 1-619): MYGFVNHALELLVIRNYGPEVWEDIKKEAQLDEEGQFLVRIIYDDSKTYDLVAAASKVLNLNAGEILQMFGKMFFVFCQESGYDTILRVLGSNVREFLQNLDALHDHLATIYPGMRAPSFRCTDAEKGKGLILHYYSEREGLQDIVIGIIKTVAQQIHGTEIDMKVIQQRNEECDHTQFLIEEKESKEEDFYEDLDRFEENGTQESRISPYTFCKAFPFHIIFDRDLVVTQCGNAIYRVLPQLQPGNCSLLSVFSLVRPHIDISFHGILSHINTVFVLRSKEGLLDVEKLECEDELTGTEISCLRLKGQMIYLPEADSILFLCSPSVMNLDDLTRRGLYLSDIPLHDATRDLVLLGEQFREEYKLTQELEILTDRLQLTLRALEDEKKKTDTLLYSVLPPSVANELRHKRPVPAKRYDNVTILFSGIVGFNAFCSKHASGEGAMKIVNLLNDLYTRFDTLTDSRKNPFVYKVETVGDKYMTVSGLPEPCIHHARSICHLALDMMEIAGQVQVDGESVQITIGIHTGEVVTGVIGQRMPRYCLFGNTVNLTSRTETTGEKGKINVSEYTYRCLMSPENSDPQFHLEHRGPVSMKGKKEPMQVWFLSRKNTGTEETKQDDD
Experiment: Cell-based sGC functional assay (CASA assay): cGMP generation in CHO-K1/sGC cells, HTRF detection
Conditions: for Emax: CHO-K1, percent activation relative to standard Compound A in CHO-K1/sGC cells, read-out: % Act.; for EC50: inflection point (IP) of cGMP generation in CHO-K1/sGC cells, 4P fit, activity expressed as percentage of Compound A; for % Act.: percent activation relative to standard Compound A in CHO-K1/sGC cells
In short: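 Stable CHO-K1/sGC cells in EBSS buffer with 5 mM MgCl2, 0.05% BSA and 0.5 mM IBMX were incubated with compound (2.5% DMSO final) ±1 μM DETA-NO for 1 hr at 37° C. cGMP was measured by HTRF. Activation is expressed as % of reference HDA Compound A maximum, with IP and max fold induction from a 4P fit.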

SMILES | Emax [%] | EC50 [nM] | % Act. [%]
CC1(C)C(=O)Nc2nc(-c3cn4ccnc4c(CCC(F)(F)C(F)(F)F)n3)nc(N)c21 [Example 87, 4-amino-5,5-dimethyl-2-(8-(3,3,4,4,4-pentafluorobutyl)imidazo [1,2-a]pyrazin-6-yl)-5H-pyrrolo[2,3-d]pyrimidin-6(7H)-one] | 54 | 399 | 
CCC(CC)Cc1nc(-c2nc(N)c3c(n2)NC(=O)C3(C)c2ccc(F)cn2)cn2ccnc12 (stereo not drawn) [Example 18B, 4-amino-2-(8-(2-ethylbutyl)imidazo[1,2-a]pyrazin-6-yl)-5-(5-fluoropyridin-2-yl)-5-methyl-5H-pyrrolo[2,3-d]pyrimidin-6(7H)-one] | 106 | 145 | 
CC(C)C1(C)C(=O)Nc2nc(-c3cn4ccnc4c(Cc4ccccc4)n3)nc(N)c21 (stereo not drawn) [Example 80A, 4-amino-2-(8-benzylimidazo[1,2-a]pyrazin-6-yl)-5-isopropyl-5-methyl-5H-pyrrolo[2,3-d]pyrimidin-6(7H)-one] | 125 | 66 | 
CC1(c2ccc(F)cn2)C(=O)Nc2nc(-c3cn4ccnc4c(CCC(F)(F)C(F)(F)F)n3)nc(NC3CC3)c21 (stereo not drawn) [Example 292B, 4-(cyclopropylamino)-5-(5-fluoropyridin-2-yl)-5-methyl-2-(8-(3,3,4,4,4-pentafluorobutyl)imidazo[1,2-a]pyrazin-6-yl)-5H-pyrrolo[2,3-d]pyrimidin-6(7H)-one] | 148 | 951 | 
Nc1nc(-c2cn3ccnc3c(Cc3ccccc3)n2)nc2c1C(C(=O)NC1CC1)(C1CC1)C(=O)N2 (single isomer, unassigned) [Example 40A, 4-amino-2-(8-benzylimidazo[1,2-a]pyrazin-6-yl)-N,5-dicyclopropyl-6-oxo-6,7-dihydro-5H-pyrrolo[2,3-d]pyrimidine-5-carboxamide] |  | 53 | 138
CCC1(C2CC2)C(=O)Nc2nc(-c3cn4ccnc4c(Cc4ccccc4)n3)nc(N)c21 (single isomer, unassigned) [Example 77B, 4-amino-2-(8-benzylimidazo[1,2-a]pyrazin-6-yl)-5-cyclopropyl-5-ethyl-5H-pyrrolo[2,3-d]pyrimidin-6(7H)-one] |  | 30 | 176
CC1(c2ccc(Cl)cc2)C(=O)Nc2nc(-c3cn4cc(C(F)(F)F)nc4c(Cc4cccc(F)c4)n3)nc(N)c21 (stereo not drawn) [Example 150A, 4-amino-5-(4-chlorophenyl)-2-(8-(3-fluorobenzyl)-2-(trifluoromethyl)imidazo[1,2-a]pyrazin-6-yl)-5-methyl-5H-pyrrolo[2,3-d]pyrimidin-6(7H)-one] | 122 | 29 | 
CC1(c2ccc(F)cn2)C(=O)Nc2nc(-c3cn4c(Br)cnc4c(CCC(F)(F)C(F)(F)F)n3)nc(N)c21 (stereo not drawn) [Example 262B, 4-Amino-2-(3-bromo-8-(3,3,4,4,4-pentafluorobutyl)imidazo[1,2-a]pyrazin-6-yl)-5-(5-fluoropyridin-2-yl)-5-methyl-5H-pyrrolo[2,3-d]pyrimidin-6(7H)-one] | 105 | 236 | 
CN(C)c1nc(-c2cn3ccnc3cn2)nc2c1C(C)(c1ccc(Cl)cc1)C(=O)N2 (stereo not drawn) [Example 312A] | 93 | 25 | 
Cc1cncc(C2(C3CC3)C(=O)Nc3nc(-c4cn5ccnc5c(CCCC(F)(F)F)n4)nc(N)c32)n1 (single isomer, unassigned) [Example 365B, 4-amino-5-cyclopropyl-5-(6-methylpyrazin-2-yl)-2-(8-(4,4,4-trifluorobutyl)imidazo[1,2-a]pyrazin-6-yl)-5H-pyrrolo[2,3-d]pyrimidin-6(7H)-one] | 108 | 704 | 

More lines, in order of falling EC50, values ahead:

Emax [%] | EC50 [nM] | % Act. [%] | SMILES
126 | 1070 |  | CC1(c2ccc(Cl)cc2Cl)C(=O)Nc2nc(-c3cn4ccnc4c(CCC(F)(F)F)n3)nc(N)c21 (stereo not drawn) [Example 187A, 4-amino-5-(2,4-dichlorophenyl)-5-methyl-2-(8-(3,3,3-trifluoropropyl)imidazo[1,2-a]pyrazin-6-yl)-5H-pyrrolo[2,3-d]pyrimidin-6(7H)-one]
182 | 985 |  | Nc1nc(-c2cn3ccnc3c(CCC(F)(F)F)n2)nc2c1C(c1ccc(Cl)cc1)(C1CCC1)C(=O)N2 (single isomer, unassigned) [Example 351B, 4-amino-5-(4-chlorophenyl)-5-cyclobutyl-2-(8-(3,3,3-trifluoropropyl)imidazo[1,2-a]pyrazin-6-yl)-5H-pyrrolo[2,3-d]pyrimidin-6(7H)-one]
126 | 786 |  | CN(C)c1nc(-c2cn3ccnc3c(CCC(F)(F)C(F)(F)F)n2)nc2c1C(C)(c1ccc(F)cn1)C(=O)N2 (stereo not drawn) [Example 291B, 4-(dimethylamino)-5-(5-fluoropyridin-2-yl)-5-methyl-2-(8-(3,3,4,4,4-pentafluorobutyl)imidazo[1,2-a]pyrazin-6-yl)-5H-pyrrolo[2,3-d]pyrimidin-6(7H)-one]
120 | 746 |  | CC(C)n1cc(C2(C)C(=O)Nc3nc(-c4cn5ccnc5c(CCC(F)(F)C(F)(F)F)n4)nc(N)c32)nn1 (stereo not drawn) [Example 67A, 4-amino-5-(1-isopropyl-1H-1,2,3-triazol-4-yl)-5-methyl-2-(8-(3,3,4,4,4-pentafluorobutyl)imidazo[1,2-a]pyrazin-6-yl)-5H-pyrrolo[2,3-d]pyrimidin-6(7H)-one]
132 | 396 |  | Nc1nc(-c2cn3ccnc3c(Cc3ccc(F)cc3)n2)nc2c1C(c1ccc(F)cn1)(C1CC1)C(=O)N2 (stereo not drawn) [Example 104A, 4-amino-5-cyclopropyl-2-(8-(4-fluorobenzyl)imidazo[1,2-a]pyrazin-6-yl)-5-(5-fluoropyridin-2-yl)-5H-pyrrolo[2,3-d]pyrimidin-6(7H)-one]
100 | 238 |  | Cc1nc2c(CCC(F)(F)C(F)(F)F)nc(-c3nc(N)c4c(n3)NC(=O)C4(C)c3ccc(F)cc3)cn2c1C#N (stereo not drawn) [Example 274A, 6-(4-amino-5-(4-fluorophenyl)-5-methyl-6-oxo-6,7-dihydro-5H-pyrrolo[2,3-d]pyrimidin-2-yl)-2-methyl-8-(3,3,4,4,4-pentafluorobutyl)imidazo[1,2-a]pyrazine-3-carbonitrile]
95 | 197 |  | CC1(c2ccc(F)cc2)C(=O)Nc2nc(-c3cn4ccnc4c(C4CCC4)n3)nc(N)c21 (stereo not drawn) [Example 21A, 4-amino-2-(8-cyclobutylimidazo[1,2-a]pyrazin-6-yl)-5-(4-fluorophenyl)-5-methyl-5H-pyrrolo[2,3-d]pyrimidin-6(7H)-one]
90 | 86 |  | Cc1nc(C2(C3CC3)C(=O)Nc3nc(-c4cn5ccnc5c(CCCC(F)(F)F)n4)nc(N)c32)ccc1Cl (single isomer, unassigned) [Example 377B]
129 | 43 |  | CC1(c2ccc(F)cc2)C(=O)Nc2nc(-c3cn4cc(C(F)(F)F)nc4c(Cc4ccc(F)c(F)c4)n3)nc(N)c21 (stereo not drawn) [Example 152A, 4-amino-2-(8-(3,4-difluorobenzyl)-2-(trifluoromethyl)imidazo[1,2-a]pyrazin-6-yl)-5-(4-fluorophenyl)-5-methyl-5H-pyrrolo[2,3-d]pyrimidin-6(7H)-one]
 | 16 | 79 | Nc1nc(-c2cn3ccnc3c(Cc3ccc(F)cc3)n2)nc2c1C(c1ccc(Cl)cn1)(C1CC1)C(=O)N2 (single isomer, unassigned) [Example 108B, 4-amino-5-(5-chloropyridin-2-yl)-5-cyclopropyl-2-(8-(4-fluorobenzyl)imidazo[1,2-a]pyrazin-6-yl)-5H-pyrrolo[2,3-d]pyrimidin-6(7H)-one]
151 | 11 |  | Nc1nc(-c2cn3ccnc3c(Cc3ccccc3F)n2)nc2c1C(c1ccc(Cl)cn1)(C1CC1)C(=O)N2 (single isomer, unassigned) [Example 110B, 4-amino-5-(5-chloropyridin-2-yl)-5-cyclopropyl-2-(8-(2-fluorobenzyl)imidazo[1,2-a]pyrazin-6-yl)-5H-pyrrolo[2,3-d]pyrimidin-6(7H)-one]
